# Source: publication PMC6093650, “Antidepressive and anxiolytic effects of ostruthin, a TREK-1 channel activator” (PLoS ONE, 2018)
# Experiments:
# KCNQ-1 = KCNQ-1 (Homo sapiens, UniProt P51787); test: whole-cell patch-clamp of KCNQ-1 currents in 293T cells; assay type: cell-based; settings: 100 μM (data not shown)
# From the text: (§1) For recordings of K^+ channel currents, we prepared stable cell lines for TREK-1, TWIK-related acid-sensitive K^+ channel (TASK-1), strongly inwardly rectifying K^+ channel (Kir2.1), and human ether-a-go-go-related gene (HERG-1) channels and transiently expressed other channels in 293T cells using a calcium-phosphate transfection method. For the establishment of the stable lines, we used lentiviral vectors, and the preparation methods for the lentiviral vectors were described in our previous report. TR-1 cells, which stably expressed TREK-1 channel and were grown on a small cover glass (3 × 18 mm), were placed in a recording chamber with an internal volume of 200 μl. Whole-cell currents were recorded in Tyrode solution using an Axopatch 200B amplifier (Axon Instruments, Foster City, CA) at 25°C. Tyrode solution contained (in mM): NaCl 140, KCl 5.4, NaH2PO4 0.33, CaCl2 2, MgCl2 1, HEPES 5, and glucose 5.5 (pH 7.4 adjusted with NaOH). […] Perfusion (100 μl/min) was continued to maintain the water level throughout recordings. pH and osmotic pressure of solutions were measured with a pH meter (Horiba, Kyoto, Japan) and a freezing point osmometer (Knauer, Berlin, Germany), respectively. […]
# [1] = tested on: mice anxiety-like behavior; test: open-field test; assay type: in vivo; settings: n = 12
# From the text: (§2) Male ICR mice (n = 317 in total) aged 5 weeks and weighing 32 ± 2 g were purchased from Shimizu Laboratory Supplies (Kyoto, Japan). For the social defeat stress test, we used 28 C57BL/6J mice (5 weeks old, Shimizu Laboratory Supplies) and 30 ICR mice (7–8 weeks old, Charles River Labs Japan, Yokohama, Kanagawa, Japan). Mice were maintained for at least 1 week prior to experiments. Animals were kept in groups in plastic cages. They had free access to food and water, and were kept in a 12-h light/dark cycle (08:00–20:00). Experiments were carried out between 10:00 and 18:00 in a quiet and air-conditioned experimental room, in which mice were habituated for at least 30 min before each experiment. Animal experiments were performed in accordance with the guidelines of the Physiological Society of Japan and were approved by the Committees on Animal Experiments at Kansai Medical University and the Kurashiki University of Science and the Arts. Ostruthin was initially dissolved in DMSO at higher concentration (100 mM) and then diluted in phosphate-buffered saline (PBS). The diluted solution was mixed vigorously for more than 10 min before the experiments, and an equal volume of DMSO was added to PBS as a control. PBS and ostruthin were administered intraperitoneally 30 min before mice behavioral tests (0.01 ml/g body weight). Each animal was used only once, except for the wheel running test, which was carried out immediately after elevated plus maze.
# The open-field test was performed in accordance with a previous report with minor modifications. The open-field consisted of a square (90 × 90 cm), in which the floor was divided into 16 equal squares. After a mouse was placed in a corner of the open field facing the wall, the number of the entries into the central squares, and whole line crossings were counted for 5 min. After removal of animal, the apparatus was cleaned and wiped.
# c-Fos immunoreactivity = test: anti-c-Fos immunostaining of mouse brain nuclei; assay type: in vivo, mice
# Protocol: The mouse was put into an anesthetizing jar and isoflurane (>0.2 ml) was added to the jar. After confirming that mouse was deeply anesthetized, its brain was fixed by transcardiac perfusion with 4% paraformaldehyde in PBS. The brains were sliced coronally (100 μm in thickness) using a microslicer (PRO7, Dosaka, Kyoto, Japan). The free-floating slices were reacted with an anti-c-Fos antibody (1: 200, goat, Santa Cruz, Dallas, TX) dissolved in PBS containing 0.3% BSA and 0.3% Triton-X-100, at 4°C for 48 h. The immunoreaction was visualized using a secondary antibody (rabbit anti-goat IgG, Vectastain Elite ABC-HRP Kit, Vector Labs, Burlingame, CA) and 3,3'-Diaminobenzidine (DAB, Tokyo Chemical Industry, Tokyo, Japan) at room temperature in accordance with the manufacturer’s instructions.
# For statistical analysis, the number of c-Fos-immunoreactive cells was quantified using the Image-J software. Briefly, fields (0.16 mm^2) of c-Fos immunoreactivity were acquired by a microscope IX70 (Olympus) using a CCD camera. DAB-positive nuclei, of which diameters were longer than 7 μm, were considered as anti-c-Fos-immunoreactive neurons. The immunoreactive cell numbers were normalized to cells/mm^2.
# HERG-1 = target: T1, HERG-1 (Homo sapiens, UniProt Q12809); test: whole-cell patch-clamp of HERG-1 tail currents in 293T cells; assay type: cell-based; settings: outward tail current, n = 5
# T1 construct: expressed in transfected cells
# T1 sequence (Q12809 whole entry): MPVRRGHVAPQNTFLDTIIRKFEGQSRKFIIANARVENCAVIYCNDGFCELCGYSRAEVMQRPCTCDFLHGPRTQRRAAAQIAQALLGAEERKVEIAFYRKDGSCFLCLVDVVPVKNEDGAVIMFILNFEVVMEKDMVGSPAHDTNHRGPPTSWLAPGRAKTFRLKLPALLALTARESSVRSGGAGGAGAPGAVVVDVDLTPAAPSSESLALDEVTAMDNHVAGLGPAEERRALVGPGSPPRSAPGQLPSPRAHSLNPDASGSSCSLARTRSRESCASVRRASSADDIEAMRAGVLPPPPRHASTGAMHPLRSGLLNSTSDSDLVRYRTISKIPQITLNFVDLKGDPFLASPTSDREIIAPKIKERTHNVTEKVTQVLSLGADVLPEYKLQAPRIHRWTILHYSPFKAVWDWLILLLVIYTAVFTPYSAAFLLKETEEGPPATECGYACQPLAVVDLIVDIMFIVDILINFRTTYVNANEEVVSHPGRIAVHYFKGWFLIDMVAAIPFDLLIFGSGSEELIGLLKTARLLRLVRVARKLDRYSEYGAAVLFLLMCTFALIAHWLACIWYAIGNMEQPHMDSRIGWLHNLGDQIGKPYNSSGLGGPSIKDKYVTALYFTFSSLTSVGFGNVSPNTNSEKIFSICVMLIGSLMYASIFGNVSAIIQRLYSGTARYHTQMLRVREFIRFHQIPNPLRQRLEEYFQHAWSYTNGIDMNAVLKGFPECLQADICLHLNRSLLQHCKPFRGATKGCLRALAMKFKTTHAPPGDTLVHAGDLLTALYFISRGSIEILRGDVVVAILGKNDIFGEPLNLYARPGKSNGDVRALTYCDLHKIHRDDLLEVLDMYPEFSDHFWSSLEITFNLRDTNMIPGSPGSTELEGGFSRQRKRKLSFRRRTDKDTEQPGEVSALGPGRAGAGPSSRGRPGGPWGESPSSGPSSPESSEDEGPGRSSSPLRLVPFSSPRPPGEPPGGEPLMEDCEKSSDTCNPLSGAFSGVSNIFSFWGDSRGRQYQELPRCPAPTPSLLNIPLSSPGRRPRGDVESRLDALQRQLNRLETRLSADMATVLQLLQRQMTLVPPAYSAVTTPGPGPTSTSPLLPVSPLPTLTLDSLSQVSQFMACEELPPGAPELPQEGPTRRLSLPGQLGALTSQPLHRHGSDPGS
# From the text: as §1
# [2] = tested on: general locomotor activity of mice; test: voluntary wheel running test; assay type: in vivo; settings: 0, 2, 5, 20 mg/kg i.p., after elevated plus maze, 5 min, n = 7
# From the text: as §2, with “The diluted solution was mixed vigorously for more than 10 min before the experiments, and an equal volume of DMSO was added to PBS as a control. PBS and ostruthin were administered intraperitoneally 30 min before mice behavioral tests (0.01 ml/g body weight). Each animal was used only once, except for the wheel running test, which was carried out immediately after elevated plus maze.” left out
# Immediately after the elevated plus maze test, the same mouse was subjected to the voluntary wheel running test. The number of rotations was measured for 5 min using an activity monitoring running wheel (Muromachi Kikai, Tokyo, Japan).
# [3] = tested on: mice anxiety-like behavior; test: light/dark box test; assay type: in vivo; settings: n = 8
# From the text: as §2
# The light/dark box consisted of two compartments with a total exterior size of 46 × 27 × 30 cm. One-third of the box was used as a dark compartment, which was covered with a black wall and lid, and the rest of the area was used as a light compartment. These compartments were connected via a small opening (7 × 7 cm), enabling transition between the two compartments. We placed a mouse in the center of the light area and measured the time spent in the light area and the number of transitions between the light and dark compartments for 5 minutes.
# [4] = 5 mg/kg, 30 min after tail suspension stress, n = 4
# [5] = i.p. 30 min before test, vs 0 mg/kg
smiles,measurement,setting,value
CC(C)=CCC/C(C)=C/Cc1cc2ccc(=O)oc2cc1O [ostruthin],effect on KCNQ-1 channels,KCNQ-1,no effect
same,number of entries to the central area,"[1]; 20 mg/kg i.p. 30 min before test, vs 5 mg/kg",significantly decreased
same,total line crossings,"[1]; 20 mg/kg i.p., vs 5 mg/kg",decrease
same,number of entries to the central area,"[1]; 2 and 5 mg/kg i.p. 30 min before test, vs 0 mg/kg, 5 min",significantly increased
same,total line crossings,"[1]; 2 and 5 mg/kg i.p. 30 min before test, vs 0 mg/kg",increased
same,"stress-induced c-Fos immunoreactivity in most nuclei (PVN, PVT, CeA, BLA, DRD, DRV)",c-Fos immunoreactivity; [4],no significant differences
same,stress-induced increase in c-Fos immunoreactivity in the lateral septum (LS),c-Fos immunoreactivity; [4],significantly suppressed
same,anti-c-Fos immunoreactivity in non-stressed animals,"c-Fos immunoreactivity; fixed 30 min after administration, vs PBS (data not shown)",no difference
same,IC50,HERG-1,216 µM
same,number of wheel rotations (voluntary motility),[2],no effect at any dose
same,time spent in the light box,"[3]; 20 mg/kg i.p., vs 5 mg/kg",decreased
same,number of transitions between the light and dark boxes,[3]; highest dose (20 mg/kg) i.p.,non-significantly decreased
same,number of transitions between the light and dark boxes,[3]; [5],increased
same,time spent in the light box,[3]; [5],significantly increased
